Key:
TT-TK [1] = type: cell-based, recombinant vaccinia virus Tiantan strain
TT-EnvTK = type: cell-based, recombinant vaccinia virus Tiantan strain
VTT [2] = type: cell-based, vaccinia virus Tiantan strain
vaccinia virus = settings: reference [10]; cited from earlier work
TT-TK [3] = system: TT-TK; design: species or system C57BL mice; settings: mouse, in vivo
VTT [4] = system: VTT; design: species or system C57BL mice; settings: mouse, in vivo

Compound: Nc1nc(O)c2ncn(COC(CO)CO)c2n1 [GCV, ganciclovir]
- inhibition effect on virus plaque number, TT-TK (TT-TK [1]): clear inhibition effects
- inhibition effect on virus plaque number, TT-EnvTK (TT-EnvTK): clear inhibition effects
- inhibition effect on virus plaque number, VTT (VTT [2]): no inhibition effects
- EC50 (vaccinia virus): > 300 µM
- virus titre in mice ovaries, TT-TK inoculation, GCV injected (TT-TK [3]): No virus was detected
- virus titre in mice ovaries, VTT inoculation, GCV injected (VTT [4]): 1×10^6 PFU
